Species on record: Rattus norvegicus
Assay: Open TG-GATES - Regimen: Single
Assay type: toxicity, organism-based, Sprague-Dawley
Design: regimen Single, gender Male, age 6 weeks
Settings: in vivo, po, route gavage; for Bas / Eos / Fbg / Lym / Mono / RBC / Ret / WBC: tissue Blood; for KIDNEY_L / KIDNEY_R / KIDNEY_TOTAL: tissue Kidney
[1] = 60 mg/kg, 3 h, dose level Middle
[2] = 60 mg/kg, 3 h, tissue Plasma, dose level Middle
[3] = 60 mg/kg, 6 h, dose level Middle
[4] = 60 mg/kg, 6 h, tissue Plasma, dose level Middle
[5] = 60 mg/kg, 9 h, dose level Middle
[6] = 60 mg/kg, 9 h, tissue Plasma, dose level Middle
[7] = 60 mg/kg, 24 h, dose level Middle
[8] = 60 mg/kg, 24 h, tissue Plasma, dose level Middle
[9] = 200 mg/kg, 3 h, dose level High
[10] = 200 mg/kg, 3 h, tissue Plasma, dose level High
[11] = 200 mg/kg, 6 h, dose level High
[12] = 200 mg/kg, 6 h, tissue Plasma, dose level High
[13] = 200 mg/kg, 9 h, dose level High
[14] = 200 mg/kg, 9 h, tissue Plasma, dose level High
[15] = 200 mg/kg, 24 h, dose level High
[16] = 200 mg/kg, 24 h, tissue Plasma, dose level High

## C=C[C@H]1C[N@@]2CC[C@H]1C[C@@H]2[C@@H](O)c1ccnc2ccc(OC)cc12 [QUINIDINE]
[1]
  Bas: 0%
  Eos: 0.4%
  Fbg: 295 mg/dL
  Lym: 73.2%
  Mono: 2.6%
  RBC: 588 x10_4/ul
  Ret: 7.6%
  WBC: 87.1 x10_2/uL
  KIDNEY_L: 1 g
  KIDNEY_R: 1 g
  KIDNEY_TOTAL: 2 g
[2]
  ALP: 1472.8 IU/L
  CRE: 0.2 mg/dL
  DBIL: 0.002 mg/dL
  IP: 9.1 mg/dL
  K: 4 meq/L
  LDH: 131.2 IU/L
  Na: 140.6 meq/L
  PL: 148.2 mg/dL
  RALB: 2.9 g/dL
  TBIL: 0.026 mg/dL
  TG: 56.2 mg/dL
  TP: 5.2 g/dL
  gamma-GTP: 2.2 IU/L
[3]
  TERMINAL_BW: 218.5 g
  Bas: 0%
  Eos: 0.8%
  Fbg: 301.2 mg/dL
  Lym: 79.8%
  Mono: 2.2%
  RBC: 623.4 x10_4/ul
  Ret: 6.6%
  WBC: 77.2 x10_2/uL
  KIDNEY_L: 1 g
  KIDNEY_R: 1 g
  KIDNEY_TOTAL: 2 g
[4]
  ALP: 1426.2 IU/L
  CRE: 0.2 mg/dL
  DBIL: 0.002 mg/dL
  IP: 9.1 mg/dL
  K: 4.3 meq/L
  LDH: 136.2 IU/L
  Na: 142.6 meq/L
  PL: 149.4 mg/dL
  RALB: 3 g/dL
  TBIL: 0.022 mg/dL
  TG: 83.2 mg/dL
  TP: 5.3 g/dL
  gamma-GTP: 1.4 IU/L
[5]
  TERMINAL_BW: 207.3 g
  Bas: 0%
  Eos: 0.8%
  Fbg: 300 mg/dL
  Lym: 77%
  Mono: 1.6%
  RBC: 622.8 x10_4/ul
  Ret: 6.8%
  WBC: 59.2 x10_2/uL
  KIDNEY_L: 1 g
  KIDNEY_R: 1 g
  KIDNEY_TOTAL: 2 g
[6]
  ALP: 1460.8 IU/L
  CRE: 0.2 mg/dL
  DBIL: 0.002 mg/dL
  IP: 9.6 mg/dL
  K: 4.4 meq/L
  LDH: 141.8 IU/L
  Na: 143.8 meq/L
  PL: 139.8 mg/dL
  RALB: 3 g/dL
  TBIL: 0.024 mg/dL
  TG: 74 mg/dL
  TP: 5.4 g/dL
  gamma-GTP: 1 IU/L
[7]
  TERMINAL_BW: 225.2 g
  Bas: 0%
  Eos: 0.8%
  Fbg: 337.8 mg/dL
  Lym: 72.4%
  Mono: 3.4%
  RBC: 650.2 x10_4/ul
  Ret: 6.9%
  WBC: 95.3 x10_2/uL
  KIDNEY_L: 1 g
  KIDNEY_R: 1 g
  KIDNEY_TOTAL: 2 g
[8]
  ALP: 1697 IU/L
  CRE: 0.1 mg/dL
  DBIL: 0 mg/dL
  IP: 8.1 mg/dL
  K: 4.1 meq/L
  LDH: 181.4 IU/L
  Na: 141 meq/L
  RALB: 3 g/dL
  TBIL: 0.014 mg/dL
  TP: 5.6 g/dL
  gamma-GTP: 1.4 IU/L
[9]
  TERMINAL_BW: 218.1 g
  Bas: 0%
  Eos: 0.8%
  Fbg: 267 mg/dL
  Lym: 76.2%
  Mono: 2.2%
  RBC: 571.6 x10_4/ul
  Ret: 6.9%
  WBC: 60.8 x10_2/uL
  KIDNEY_L: 1 g
  KIDNEY_R: 1 g
  KIDNEY_TOTAL: 2 g
[10]
  ALP: 1429.4 IU/L
  CRE: 0.2 mg/dL
  DBIL: 0.002 mg/dL
  GLC: 172 mg/dL
  IP: 9.1 mg/dL
  K: 4 meq/L
  LDH: 121 IU/L
  Na: 140.6 meq/L
  PL: 126.8 mg/dL
  RALB: 2.9 g/dL
  TBIL: 0.02 mg/dL
  TC: 66.2 mg/dL
  TG: 46.8 mg/dL
  TP: 5.1 g/dL
  gamma-GTP: 1.4 IU/L
[11]
  TERMINAL_BW: 221.5 g
  Bas: 0%
  Eos: 0.8%
  Fbg: 318.2 mg/dL
  Lym: 76.4%
  Mono: 2.2%
  RBC: 584.8 x10_4/ul
  Ret: 7.5%
  WBC: 76 x10_2/uL
  KIDNEY_L: 1 g
  KIDNEY_R: 1 g
  KIDNEY_TOTAL: 2 g
[12]
  ALP: 1392.8 IU/L
  CRE: 0.2 mg/dL
  DBIL: 0.004 mg/dL
  IP: 8.7 mg/dL
  K: 4.3 meq/L
  LDH: 181.8 IU/L
  Na: 142 meq/L
  RALB: 3 g/dL
  TBIL: 0.024 mg/dL
  TC: 86.4 mg/dL
  TG: 55.4 mg/dL
  TP: 5.4 g/dL
  gamma-GTP: 1.2 IU/L
[13]
  TERMINAL_BW: 218.2 g
  Bas: 0%
  Eos: 0.8%
  Fbg: 309.8 mg/dL
  Lym: 74%
  Mono: 1.6%
  RBC: 591 x10_4/ul
  Ret: 6.5%
  WBC: 63.2 x10_2/uL
  KIDNEY_L: 1 g
  KIDNEY_R: 1 g
  KIDNEY_TOTAL: 2 g
[14]
  ALP: 1558.2 IU/L
  CRE: 0.1 mg/dL
  DBIL: 0.004 mg/dL
  IP: 8.9 mg/dL
  K: 4.4 meq/L
  LDH: 118.4 IU/L
  Na: 142.6 meq/L
  PL: 148.2 mg/dL
  RALB: 3 g/dL
  TBIL: 0.028 mg/dL
  TG: 71.6 mg/dL
  TP: 5.4 g/dL
  gamma-GTP: 1.2 IU/L
[15]
  TERMINAL_BW: 231.5 g
  Bas: 0%
  Eos: 0.8%
  Fbg: 319.6 mg/dL
  Lym: 74.8%
  Mono: 3%
  RBC: 633.6 x10_4/ul
  Ret: 7.1%
  WBC: 84.6 x10_2/uL
  KIDNEY_L: 1 g
  KIDNEY_R: 1.1 g
  KIDNEY_TOTAL: 2.1 g
[16]
  ALP: 1496.4 IU/L
  CRE: 0.1 mg/dL
  DBIL: 0.002 mg/dL
  IP: 9.1 mg/dL
  K: 4.1 meq/L
  LDH: 144.2 IU/L
  Na: 141 meq/L
  PL: 146.8 mg/dL
  RALB: 3 g/dL
  TBIL: 0.01 mg/dL
  TP: 5.6 g/dL
  gamma-GTP: 1.6 IU/L
